Assay [1] in a line: intracellular Trypanosoma cruzi inhibitors in host cells – cell-based, plate reader, cherry-pick samples, set 3, dose response (AID 651818).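 Further: compounds incubated with infected cells for about four days.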 The assay is classed as functional.
For assay [2], the target named is Induced myeloid leukemia cell differentiation protein Mcl-1 (Homo sapiens, UniProt Q07820). The format is functional.
The next assay addresses Large T antigen (Simian virus 40, UniProt P03070). The format is functional, Betapolyomavirus macacae.
Another assay concerns INS1. The experiment in a line: INS-1E survival protection against cytokine death – cell-based, luminescence, retest, dose response (AID 449756).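 Further: cell death triggered by IL-1 beta plus TNF-alpha plus IFN-gamma mixture; protective hits raise ATP signal compared with cytokine alone wells.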 The format is functional. Conditions: Rattus norvegicus.
Assay [3] deals with T1, Short transient receptor potential channel 4 (Mus musculus, UniProt Q9QUQ5).
T1 sequence (Q9QUQ5 whole entry): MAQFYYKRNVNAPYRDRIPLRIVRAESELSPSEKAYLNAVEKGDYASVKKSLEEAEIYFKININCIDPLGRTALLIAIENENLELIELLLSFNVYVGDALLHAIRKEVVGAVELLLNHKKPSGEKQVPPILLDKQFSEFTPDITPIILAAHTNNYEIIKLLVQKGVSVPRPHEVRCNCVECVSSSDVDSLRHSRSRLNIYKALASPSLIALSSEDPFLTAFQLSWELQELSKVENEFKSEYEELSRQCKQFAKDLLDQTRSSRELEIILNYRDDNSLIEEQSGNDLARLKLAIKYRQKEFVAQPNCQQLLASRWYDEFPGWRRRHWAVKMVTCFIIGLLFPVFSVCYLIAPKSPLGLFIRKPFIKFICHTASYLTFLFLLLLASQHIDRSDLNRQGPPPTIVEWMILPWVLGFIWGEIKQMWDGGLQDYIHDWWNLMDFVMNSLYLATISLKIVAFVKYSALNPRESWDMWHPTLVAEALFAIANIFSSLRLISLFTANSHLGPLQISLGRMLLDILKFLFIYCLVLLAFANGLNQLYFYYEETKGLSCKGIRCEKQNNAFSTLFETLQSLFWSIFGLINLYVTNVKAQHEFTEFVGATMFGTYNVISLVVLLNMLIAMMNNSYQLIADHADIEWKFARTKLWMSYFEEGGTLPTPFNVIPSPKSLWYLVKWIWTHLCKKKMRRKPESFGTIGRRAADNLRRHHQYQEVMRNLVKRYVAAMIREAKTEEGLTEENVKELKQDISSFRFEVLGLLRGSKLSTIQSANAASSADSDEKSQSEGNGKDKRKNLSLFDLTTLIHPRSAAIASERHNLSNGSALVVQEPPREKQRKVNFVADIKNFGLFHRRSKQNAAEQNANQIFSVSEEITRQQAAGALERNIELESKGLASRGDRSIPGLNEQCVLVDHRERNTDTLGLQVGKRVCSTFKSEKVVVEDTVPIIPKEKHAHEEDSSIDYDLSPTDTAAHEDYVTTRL
The experiment in a line: calcium entry via TRPC4 opening agents – cell-based, HEK293 TRPC4/mu-opioid, Fluo-4 calcium, dose response (AID 434937). The format is functional.

Assay [4] has as its target T2, RNA-binding protein pos-1 (Caenorhabditis elegans, UniProt G5EF15).
T2 sequence (G5EF15 whole entry): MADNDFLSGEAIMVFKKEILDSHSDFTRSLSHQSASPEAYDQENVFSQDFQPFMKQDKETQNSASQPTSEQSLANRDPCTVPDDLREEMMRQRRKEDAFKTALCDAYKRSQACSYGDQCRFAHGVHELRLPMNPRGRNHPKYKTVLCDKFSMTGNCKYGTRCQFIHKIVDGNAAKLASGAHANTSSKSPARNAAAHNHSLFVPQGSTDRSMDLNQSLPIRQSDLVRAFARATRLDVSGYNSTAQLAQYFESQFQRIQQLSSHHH
Nature of the assay: disruptors of C. elegans POS-1 RNA interaction – biochemical, fluorescence polarization, dose response (AID 1964).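 Further: purified POS-1 fused to maltose binding protein made in E. coli; potency of compounds blocking POS-1 binding to fluorescent RNA.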

Assay [5] has as its target T3, Zinc finger protein mex-5 (Caenorhabditis elegans, UniProt Q9XUB2).
T3 sequence (Q9XUB2 whole entry): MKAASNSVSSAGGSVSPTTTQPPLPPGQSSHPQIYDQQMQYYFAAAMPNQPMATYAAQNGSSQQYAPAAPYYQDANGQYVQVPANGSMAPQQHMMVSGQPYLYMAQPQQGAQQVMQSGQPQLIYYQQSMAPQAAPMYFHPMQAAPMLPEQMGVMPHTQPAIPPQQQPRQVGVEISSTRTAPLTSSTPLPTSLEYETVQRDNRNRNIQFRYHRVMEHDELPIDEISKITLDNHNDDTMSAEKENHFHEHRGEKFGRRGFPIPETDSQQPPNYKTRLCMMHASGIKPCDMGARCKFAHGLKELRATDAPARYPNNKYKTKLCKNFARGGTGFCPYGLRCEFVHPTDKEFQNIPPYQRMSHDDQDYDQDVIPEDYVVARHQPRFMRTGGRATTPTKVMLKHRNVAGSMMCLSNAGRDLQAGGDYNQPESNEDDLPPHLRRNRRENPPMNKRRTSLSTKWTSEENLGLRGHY
The experiment in a line: potency of MEX-5 RNA-binding blockers – biochemical, C. elegans, fluorescence polarization, dose response (AID 1960). For orientation: In fluorescence polarisation assays a small probe gives low polarisation when free and higher when bound to something large.

The target of assay [6] is T4, Corticotropin-releasing factor receptor 2/Corticotropin-releasing factor-binding protein (Homo sapiens, UniProt P24387+Q13324).
T4 sequence (Q13324 whole entry): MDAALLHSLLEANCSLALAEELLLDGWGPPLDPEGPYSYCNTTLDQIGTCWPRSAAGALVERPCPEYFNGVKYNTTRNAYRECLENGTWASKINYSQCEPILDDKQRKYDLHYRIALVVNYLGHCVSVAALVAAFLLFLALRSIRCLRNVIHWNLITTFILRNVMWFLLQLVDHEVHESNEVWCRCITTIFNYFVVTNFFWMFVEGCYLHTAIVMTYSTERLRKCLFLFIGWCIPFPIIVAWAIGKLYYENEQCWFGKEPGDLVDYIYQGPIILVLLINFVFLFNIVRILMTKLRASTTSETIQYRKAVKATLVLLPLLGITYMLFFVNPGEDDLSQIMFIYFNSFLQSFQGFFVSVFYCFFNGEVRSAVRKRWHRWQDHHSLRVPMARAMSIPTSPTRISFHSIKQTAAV
T4 sequence (P24387 whole entry): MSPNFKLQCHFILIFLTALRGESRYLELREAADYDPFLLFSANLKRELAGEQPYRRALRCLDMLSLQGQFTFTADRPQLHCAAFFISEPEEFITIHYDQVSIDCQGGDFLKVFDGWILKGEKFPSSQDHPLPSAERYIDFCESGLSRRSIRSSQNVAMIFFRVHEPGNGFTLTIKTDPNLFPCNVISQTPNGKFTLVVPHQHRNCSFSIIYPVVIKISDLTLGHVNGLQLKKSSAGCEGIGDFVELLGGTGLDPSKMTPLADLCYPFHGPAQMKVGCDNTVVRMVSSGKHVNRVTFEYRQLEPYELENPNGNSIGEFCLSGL
Nature of the assay: activators of CRF receptor 2 with binding protein – uHTS hits, confirmation (AID 602473). The format is functional. Conditions: read-out: EC50_Mean.

Assay [7] deals with T5, Polyadenylate-binding protein 1 (Homo sapiens, UniProt P11940). Nature of the assay: MLLE domain peptide-binding blockers, IC50 – biochemical, fluorescence polarization, FITC-PAM2 peptide, dose response (AID 602259). The assay is classed as functional. The settings on record: read-out: IC50_Mean.
T5 sequence (P11940 whole entry, the tested form may be a part): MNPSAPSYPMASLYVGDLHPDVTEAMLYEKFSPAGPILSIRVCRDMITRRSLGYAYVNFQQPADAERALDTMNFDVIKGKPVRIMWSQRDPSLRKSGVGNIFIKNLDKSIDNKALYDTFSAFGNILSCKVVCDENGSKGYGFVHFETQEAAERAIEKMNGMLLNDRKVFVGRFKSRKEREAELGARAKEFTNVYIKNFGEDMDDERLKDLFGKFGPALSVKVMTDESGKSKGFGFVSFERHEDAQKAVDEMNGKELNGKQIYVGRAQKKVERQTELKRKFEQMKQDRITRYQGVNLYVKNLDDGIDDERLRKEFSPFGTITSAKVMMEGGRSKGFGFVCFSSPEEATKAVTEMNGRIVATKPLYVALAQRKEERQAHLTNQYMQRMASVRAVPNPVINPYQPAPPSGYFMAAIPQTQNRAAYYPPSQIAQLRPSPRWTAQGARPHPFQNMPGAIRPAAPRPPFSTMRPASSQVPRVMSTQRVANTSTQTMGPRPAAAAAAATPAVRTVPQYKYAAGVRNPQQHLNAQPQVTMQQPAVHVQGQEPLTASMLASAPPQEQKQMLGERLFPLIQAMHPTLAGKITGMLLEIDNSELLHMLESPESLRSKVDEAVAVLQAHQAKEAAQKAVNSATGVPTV
For assay [8], the target named is T5, Polyadenylate-binding protein 1. The experiment in a line: MLLE binding blockers, Cy5 peptide tracer – biochemical, fluorescence polarization, Cy5-PAM2 peptide, secondary, miRNA deadenylation inhibitor project, dose response (AID 602260). The format is functional. Conditions: read-out: IC50_Mean.
Assay [9] in a line: Trypanosoma cruzi growth suppression in host cells – NIH3T3 host cells, beta-gal luminescence, confirmation (AID 2044).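 Further: intracellular parasites grown in NIH/3T3 mouse fibroblasts as host cells; luminescent beta-galactosidase reporter signal from transgenic T. cruzi replicating inside host cells; inhibitors lower the luminescence signal.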 The assay is classed as functional, cell-based.
Assay [10] in a line: NIH3T3 cell viability loss – ATP luminescence, mouse fibroblasts, counter-screen, dose response (AID 2010).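 Further: cells exposed to compound for about 90 hours before reading.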 The assay is classed as functional, cell-based.
Assay [11] deals with FAD-linked sulfhydryl oxidase ALR (Homo sapiens, UniProt P55789). Nature of the assay: ALR-catalysed DTT oxidation blockers – biochemical, H2O2 detection, luminescence, cherry-pick, dose response (AID 493248).
Sequence of FAD-linked sulfhydryl oxidase ALR (P55789 whole entry): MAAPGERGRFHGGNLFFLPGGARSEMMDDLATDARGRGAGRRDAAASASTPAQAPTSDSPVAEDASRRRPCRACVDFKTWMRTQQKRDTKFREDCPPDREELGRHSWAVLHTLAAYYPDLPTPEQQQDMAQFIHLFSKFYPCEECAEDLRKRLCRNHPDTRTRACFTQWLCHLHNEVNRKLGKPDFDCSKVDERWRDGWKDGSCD

The source made the active and inactive calls.

Sequence of Induced myeloid leukemia cell differentiation protein Mcl-1 (Q07820 whole entry): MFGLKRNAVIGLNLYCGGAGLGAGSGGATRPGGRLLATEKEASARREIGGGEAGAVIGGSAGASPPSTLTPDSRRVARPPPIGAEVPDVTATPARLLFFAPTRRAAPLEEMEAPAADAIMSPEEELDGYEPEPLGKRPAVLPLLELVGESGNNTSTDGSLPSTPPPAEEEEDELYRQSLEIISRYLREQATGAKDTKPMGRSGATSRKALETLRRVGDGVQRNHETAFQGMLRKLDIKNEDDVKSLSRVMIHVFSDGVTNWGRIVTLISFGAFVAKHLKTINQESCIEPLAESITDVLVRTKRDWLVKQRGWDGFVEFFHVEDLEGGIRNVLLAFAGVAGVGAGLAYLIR
Sequence of Large T antigen (P03070 whole entry): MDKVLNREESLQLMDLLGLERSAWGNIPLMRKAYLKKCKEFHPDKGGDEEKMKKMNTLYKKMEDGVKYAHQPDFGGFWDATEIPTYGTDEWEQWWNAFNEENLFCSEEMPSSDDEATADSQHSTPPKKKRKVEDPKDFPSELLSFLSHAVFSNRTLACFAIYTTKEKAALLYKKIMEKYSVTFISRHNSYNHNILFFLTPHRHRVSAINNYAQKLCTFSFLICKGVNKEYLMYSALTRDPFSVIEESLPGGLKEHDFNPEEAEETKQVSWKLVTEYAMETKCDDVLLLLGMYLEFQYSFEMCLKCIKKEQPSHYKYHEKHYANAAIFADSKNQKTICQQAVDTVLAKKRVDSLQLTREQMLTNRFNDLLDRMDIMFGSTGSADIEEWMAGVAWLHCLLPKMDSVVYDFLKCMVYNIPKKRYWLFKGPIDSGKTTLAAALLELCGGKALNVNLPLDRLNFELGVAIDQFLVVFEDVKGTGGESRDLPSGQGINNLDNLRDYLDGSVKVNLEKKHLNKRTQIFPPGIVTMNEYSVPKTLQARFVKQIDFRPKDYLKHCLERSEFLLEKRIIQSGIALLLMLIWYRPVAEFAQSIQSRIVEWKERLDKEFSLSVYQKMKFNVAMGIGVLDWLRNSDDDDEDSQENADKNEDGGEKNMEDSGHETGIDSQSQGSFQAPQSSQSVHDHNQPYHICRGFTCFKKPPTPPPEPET

Take `C[C@H](CO)N1C[C@H](C)[C@@H](CN(C)Cc2ccc(-c3ccccc3)cc2)Oc2c(NC(=O)CCCCCC(=O)Nc3ccccc3N)cccc2C1=O`: the AC50 in assay [1] is 1.6 µM (active).
For the molecule `O=[N+]([O-])c1cccc(N/N=C/c2cc([N+](=O)[O-])ccc2O)c1`, the IC50 in assay [2] was < 0.4 µM (active).
`COC(=O)CSc1nnc(CNc2ccc(OC)cc2)n1C`: the IC50 at Large T antigen is 45.8 µM (active).
Regarding `Cc1cc(-c2ccccc2)cc(C)[n+]1Cc1ccccc1.[O-][Cl+3]([O-])([O-])[O-]`, the AC50 with INS1 is 0.719 µM (active). Besides, the EC50 in assay [3] is 1.88 µM (active).
Turning to `Cn1ncc2c(NNC(=O)c3ccc(O)cc3)ncnc21`, the EC50 in assay [4] is 39.5 µM (active); in assay [5], 6.35 µM (active).
With `CCOC(=O)c1c(-c2ccc(C)cc2)csc1NC(=O)/C(C#N)=C/c1ccc(O)c(OC)c1`, in assay [6], the EC50 is 2.87 µM (active). Besides, the IC50 in [2] was > 54 µM (active).
Take `C[C@H]1CN([C@@H](C)CO)C(=O)Cc2cc(N(C)C)ccc2O[C@@H]1CN(C)Cc1ccc(C(F)(F)F)cc1`: in assay [1], the concentration at half-maximal activity (AC50) is 0.991 µM (active).
As to `COC(=O)C1CCN(Cc2cn(-c3ccccc3)nc2-c2ccc3c(c2)OCO3)CC1`, the EC50 in assay [3] was 1.88 µM (active).
`Cc1ccc(S(=O)(=O)Nc2ccc3c(c2)C(=O)N([C@@H](C)CO)C[C@@H](C)[C@@H](CN(C)Cc2ccc(Cl)c(Cl)c2)O3)cc1`: the concentration at half-maximal activity (AC50) in assay [1] was 3.36 µM (active).
As to `CC1CN(C2CC(C)(C)NC(C)(C)C2)CCC1=O` (stereo not drawn), the EC50 in assay [4] and in [5] was > 300 µM (not active) throughout.
With `O=[N+]([O-])c1cc(-c2ccc([As](=O)(O)O)cc2)ccc1[As](=O)(O)O`, the EC50 is 22.8 µM (inconclusive) in assay [4] and 18 µM (active) in assay [5].
For `CC1(C)CC(=O)C2=C(C1)OC(N)=C(C#N)C2c1ccc2c(c1)OCO2` (stereo not drawn), the EC50 in [4] and in assay [5] was > 300 µM (not active) each time.
For `CC1CC(C)CN(CCCNS(=O)(=O)c2cc(Br)cc3c2N(C(=O)C2CC2)CC3)C1` (stereo not drawn), the EC50 in [3] was 0.0267 µM (active).
Take `C[C@H](CO)N1C[C@H](C)[C@H](CN(C)S(=O)(=O)c2cccs2)Oc2c(NC(=O)c3nc4ccccc4s3)cccc2C1=O`: the concentration at half-maximal activity (AC50) in assay [1] is 1.67 µM (active).
For `Cc1cccc(N(C)C(=O)CCS(=O)(=O)c2cc3c(cc2Cl)NC(=O)CO3)c1`, the IC50 in assay [7] and in [8] was > 66 µM (inactive) in each case.
On to `COc1ccc2[nH]c3c(=O)n(Cc4ccc(C(=O)N5CCCC5)cc4)c(=S)[nH]c3c2c1`, for which the IC50 in [2] is 3.5 µM (not active).
Take `Cc1cccc(Oc2nc(-c3ccccn3)nc3ccccc23)c1`: the figures for the EC50 in assay [4] and in [5] were > 300 µM (not active) and 173 µM (active), respectively.
As for `CCOc1cc(/C=N/NC(=O)CCn2nnc3ccccc32)ccc1O`, the IC50 at Large T antigen is 10.4 µM (active).
Consider `Cc1ccc(NC(S)=Nc2ccccn2)cc1C`, for which the IC50 in assay [7] and in assay [8] was > 66 µM (inactive) each time.
On to `O=C(CSc1ccsc1[N+](=O)[O-])N1CCN(c2ccc(Cl)cc2)CC1`, for which, in assay [2], the IC50 was 5.8 µM (active).
With `Cc1ccc(C)c(OCCCCCn2ccnc2)c1`, the EC50 in assay [3] was 3.35 µM (active); in [9], 0.505 µM (active); in assay [10], 4.76 µM (active).
Take `C[C@@H]1CN([C@H](C)CO)C(=O)c2cccc(NC(=O)CCCCCC(=O)Nc3ccccc3N)c2O[C@H]1CN(C)CC1CCCCC1`: the half-maximal activity concentration (AC50) in assay [1] was 3.18 µM (active).
Take `COc1ccc(N2CCN(Cc3nc4ccccc4n3C)CC2)cc1`: the EC50 in assay [3] was 6.68 µM (active). Moreover, the AC50 in assay [11] is 8.25 µM (active).
As for `COc1ccc(-c2c(-c3ccc(O)cc3O)n[nH]c2C)cc1OC`, the IC50 at Large T antigen is 33.6 µM (active).
Take `COc1ccccc1N=C(S)NNC(=O)c1cc(C)n(C)n1`: the values for the EC50 in assay [4] and in assay [5] were 50.3 µM (active) and 58.4 µM (active), respectively.
In the case of `COc1ccc(OC)c(/C=N/NC(=O)CCc2ccc(O)c(O)c2)c1`, the IC50 at Large T antigen is 19.1 µM (active).
In the case of `COc1ccc(/C(C)=N\NC(=O)CSc2nnc(C)s2)cc1`, the IC50 in assay [7] and in [8] was > 66 µM (inactive) each time.
For the molecule `Oc1cccc2cnccc12`, the IC50 at Large T antigen was 17.1 µM (active).
Turning to `C=CCc1c(C)nc(SCCC)nc1O`, the IC50 in assay [2] was 9.1 µM (not active).
For the molecule `CCCN(CCC)CCCNC(=O)C1CCN(S(=O)(=O)c2cccc3nsnc23)CC1`, in [3], the EC50 was 0.133 µM (active).
As for `Cc1noc(C)c1S(=O)(=O)Nc1cccc2c1O[C@H](CN(C)Cc1ccc(C(=O)Nc3ccccc3N)cc1)[C@H](C)CN([C@H](C)CO)C2=O`, the AC50 in assay [1] is 3.53 µM (active).
Regarding `CC(C)c1ccc(O)c(NC(=S)NC(=O)CCc2ccccc2)c1`, the IC50 in assay [7] and in assay [8] was > 66 µM (inactive) in each case.
For `C[C@H]1CN([C@@H](C)CO)C(=O)c2cccc(NS(=O)(=O)c3ccc(Cl)cc3)c2O[C@H]1CN(C)Cc1ccc(C(=O)Nc2ccccc2N)cc1`, the AC50 in [1] is 2.28 µM (active).

In general, AC50 refers to the midpoint of the concentration-response curve, whichever way the signal moves.
